These results are taken from article PMC11607601, “Absence of the dolichol synthesis gene DHRSX leads to N-glycosylation defects in Lec5 and Lec9 Chinese hamster ovary cells” (The Journal of Biological Chemistry, 2024).

Common to all, as to type: biochemical
Experiment [1] has as its target T1, chDHRSX (Chinese hamster DHRSX) (Cricetulus griseus, UniProt A0A9J7GKV7).
T1 construct: gene LOC113838539; N-terminal 6xHis tag, pET15b, E. coli BL21(DE3), HisTrap native purification
T1 sequence (A0A9J7GKV7 1-328): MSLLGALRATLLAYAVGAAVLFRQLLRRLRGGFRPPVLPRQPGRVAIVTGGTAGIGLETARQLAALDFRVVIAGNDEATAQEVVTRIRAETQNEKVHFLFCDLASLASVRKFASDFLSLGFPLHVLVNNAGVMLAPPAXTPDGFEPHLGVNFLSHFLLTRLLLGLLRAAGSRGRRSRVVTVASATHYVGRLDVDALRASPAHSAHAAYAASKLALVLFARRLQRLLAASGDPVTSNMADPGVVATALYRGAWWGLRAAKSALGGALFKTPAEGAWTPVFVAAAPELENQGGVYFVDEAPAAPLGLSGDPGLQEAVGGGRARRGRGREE
The experiment is described as follows: LC-MS of polyprenal-18 formation, Michaelis-Menten fit. Particulars: 4 μM polyprenol mixture, pH 8.0, 37 °C, PC/PE lipids. The text has this: LC-MS of polyprenal-18 formation, Michaelis-Menten fit on chDHRSX (Chinese hamster DHRSX)

Experiment [2] has as its target T1, chDHRSX (Chinese hamster DHRSX). The experiment is described as follows: LC-MS of dolichol-18 formation, Michaelis-Menten fit. Particulars: 4 μM dolichal mixture, pH 8.0, 37 °C, PC/PE lipids. From the text:
LC-MS of dolichol-18 formation, Michaelis-Menten fit on chDHRSX (Chinese hamster DHRSX)

Experiment [3] addresses T2, hDHRSX (human DHRSX) (Homo sapiens, UniProt Q8N5I4).
T2 construct: pUB83 hDHRSX-N-His lentiviral expression in DHRSX-null Lec5 and Lec9 CHO cells; membrane preparation
T2 sequence (Q8N5I4 2-330): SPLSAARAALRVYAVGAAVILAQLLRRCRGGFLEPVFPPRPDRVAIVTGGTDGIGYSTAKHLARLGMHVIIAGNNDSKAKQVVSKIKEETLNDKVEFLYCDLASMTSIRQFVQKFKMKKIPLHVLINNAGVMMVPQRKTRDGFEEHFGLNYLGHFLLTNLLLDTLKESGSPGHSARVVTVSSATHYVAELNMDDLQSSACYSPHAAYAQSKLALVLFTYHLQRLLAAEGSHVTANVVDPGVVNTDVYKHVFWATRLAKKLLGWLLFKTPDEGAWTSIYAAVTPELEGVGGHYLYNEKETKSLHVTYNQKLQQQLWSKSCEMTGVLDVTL
The experiment is described as follows: LC-MS of polyprenal-18 formation in membranes. To be noted: polyprenol mixture 5 μg/ml, 5 mM NAD+, pH 8.0, 37 °C, 2 h.

The target of experiment [4] is T2, hDHRSX (human DHRSX). The experiment is described as follows: LC-MS of dolichol-18 formation in membranes. Particulars: dolichal mixture 5 μg/ml, 5 mM NADPH, pH 8.0, 37 °C, 2 h.

As to `NC(=O)c1ccc[n+]([C@@H]2O[C@H](COP(=O)(O)OP(=O)(O)OC[C@H]3O[C@@H](n4cnc5c(N)ncnc54)[C@H](OP(=O)(O)O)[C@@H]3O)[C@@H](O)[C@H]2O)c1` [NADP^+], the Km in experiment [1] (read-out: NADP^+) was 96 ± 43 µM.
For the molecule `NC(=O)C1=CN([C@@H]2O[C@H](COP(=O)(O)OP(=O)(O)OC[C@H]3O[C@@H](n4cnc5c(N)ncnc54)[C@H](O)[C@@H]3O)[C@@H](O)[C@H]2O)C=CC1` [NADH], the Km in experiment [2] (read-out: NADH) was determined as 34 ± 7 µM.
As for `NC(=O)c1ccc[n+]([C@@H]2O[C@H](COP(=O)(O)OP(=O)(O)OC[C@H]3O[C@@H](n4cnc5c(N)ncnc54)[C@H](O)[C@@H]3O)[C@@H](O)[C@H]2O)c1` [NAD^+], in experiment [3], the “LC-MS of polyprenal-18 formation in membranes” value is “expression of hDHRSX in Lec5 and Lec9 cells increased the formation of polyprenal”. Further, the Km in experiment [1] (read-out: NAD^+) amounted to 81 ± 36 µM.
Take `NC(=O)C1=CN([C@@H]2O[C@H](COP(=O)(O)OP(=O)(O)OC[C@H]3O[C@@H](n4cnc5c(N)ncnc54)[C@H](OP(=O)(O)O)[C@@H]3O)[C@@H](O)[C@H]2O)C=CC1` [NADPH]: the “LC-MS of dolichol-18 formation in membranes” value in experiment [4] is listed as “expression of hDHRSX strongly increased dolichol formation”. Moreover, in experiment [2] (read-out: NADPH), the Km is 26 ± 8 µM.
